Reference: article PMC5770468, “Cardiac glycoside/aglycones inhibit HIV-1 gene expression by a mechanism requiring MEK1/2-ERK1/2 signaling” (Scientific Reports, 2018)
Where two headings read alike, the source gives them in different places.

Legend:
Assay type in all cases: cell-based
[1] = system: clinical strains of HIV; assay: microbe, parasite or virus in culture; settings: for IC90 / IC50: Human immunodeficiency virus 1, PBMC, 336 h; for IC90: read-out: IC90, viral growth in HIV-infected PBMCs; for IC50: read-out: IC50 (nM) HIV-infected PBMCs
Protocol: PBMCs from HIV infected patients were depleted of CD8^+ T cells (Supplementary Fig. S3), activated by anti-CD3 and anti-CD28 antibodies, and treated 20 d with indicated concentrations of drug/compound. HIV particle formation was quantitated by p24^CA ELISA of cell supernatants and viability of cells were assayed by XTT. […] Graphs of viral growth (p24 protein levels) and cell viability (gray circles, adjacent y-axis) of cells treated with drug/compounds (red triangles) or DMSO (black circles) are shown. The drug 3TC and the CS digoxin (d–e) were provided for comparison. […] Dose-response curves of CS effects on HIV replication (relative Gag expression, black circles) and cell viability (gray circles) were measured on day 14.
PBMCs were then seeded to 24-well plates in the presence/absence of indicated drug/compounds (0.5 mL final) which were pre-diluted in RPMI^+++ in the same manner as described above. Every 3–4 days, ~0.25 mL of media was harvested for assays and replenished with ~0.25 mL of fresh medium with drug/compound and 20 U/mL of IL-2. HIV growth in cultures was monitored by p24^CA ELISA of cell supernatants harvested (detailed below) and the effect of compounds on cell viability were monitored by XTT assay.
(§1) To monitor HIV-1 gene expression or replication, Gag release into cell culture supernatants were assayed by ELISA using a p24^CA antigen capture assay kit (AIDS & Cancer Virus Program, NCI-Frederick, Frederick, MD USA). Media harvested from HIV clinical isolates were diluted ~10 fold (or as necessary) prior to performing this assay. For analysis of HIV-1 and SR protein expression (and phosphorylation states with calf intestinal alkaline phosphatase treatments), cells were lysed and analyzed by western blot as previously outlined. Phosphatase inhibitors (e.g. 10 mM sodium fluoride, 2 mM sodium orthovanadate) were added to solutions requiring phospho protein analyses. An anti-chicken NKA antibody (α6F, #a6F–c, Developmental Studies Hybridoma Bank, The University of Iowa, contributed by Douglas M. Fambrough, The Johns Hopkins University) was used as specified to detect NKA α1- and β1-subunits across species. […] Activation of MAPKs was determined by western blot quantitation and calculation of phospho/total protein levels. […] Images were exported as TIF files for assembly, rotation, and equal brightness/contrast adjustments in ImageJ or Microsoft Powerpoint. Some lanes were cropped and rearranged from the same blot/gel as indicated. In representative gel/blot sets, samples were electrophoresed from the same experiment as controls, resolved simultaneously on identically cast gel(s), transferred to same PVDF (by either wet electrophoretic or by Bio-Rad Trans-Blot® Turbo Transfer System), and detected at same time. Marked locations of molecular weight (MW) standards are shown on the left as a reference. […] SUnSET analysis of total cellular protein synthesis. HeLa rtTA-HIV-ΔMls cells were cultured in the presence/absence of compound and pathway inhibitor (if any) and Dox induced for ~24 h as already described, then treated with puromycin (10 μg/mL, Sigma-Aldrich, #P8833) for 30 min to label nascent proteins prior to harvest. As control, 10 µM of cycloheximide (Sigma-Aldrich, #C4849) was added to some cells prior to puromycin treatment. Cells were subsequently washed, whole cell lysates prepared, and proteins quantified by western blot using an anti-puromycin antibody (EMD Millipore, #anti-12D10) as described above. Transfection of plasmid DNA into cells. Transfection of pCMV6-HA-AKT-1 (WT, KM, or Myr) or CMV myc and with CMV tTA pA and CMV PLAP plasmids into HeLa rtTA-HIV-ΔMls cells were performed by polyethylene imine (PEI) transfection as previously described[9],[10].

[2] = system: HIV-1 US RNAs; assay: FISH localization of HIV-1 US RNA in HeLa rtTA-HIV(Gag-GFP) cells; settings: ~IC90s of CSs
Excerpt: Figure 4 CSs suppress HIV-1 gene expression by altering viral RNA processing. […] (a,b) CSs induce oversplicing of HIV-1 RNAs (n ≥ 3, mean, s.e.m.). (a) Diagram of the primer positions (arrow heads) used for qRT-PCR. (b) Graph of the relative amount of US (black), SS (white), and MS (gray) HIV-1 RNAs in cells treated with various CSs. (c) Nuclear export of HIV-1 US RNAs in cells is altered by CSs (representative n ≥ 4). HIV-1 US RNAs were localized by FISH after treating HeLa rtTA-HIV(Gag-GFP) cells as described above but with ~IC90s of CSs. Nuclei were stained by DAPI and images captured at 630 × magnification. (d) CSs induce differential post-translational modification of SR proteins (representative n ≥ 3). SRp20, Tra2β, and tubulin were analyzed by immunoblot of HeLa rtTA-HIV-ΔMls cells treated as described above except cells of this representative blot were treated 3 d with ~IC50s of CSs. (g) Lanes were cropped and assembled from the same gel/blot per box (Supplementary Fig. S4d).
RNA was extracted from cells, reverse transcribed, and resulting cDNAs subject to qRT-PCR quantification of HIV-1 mRNAs as previously described except reactions used iTaq™ Universal SYBR® Green Supermix (Bio-Rad, #172-5120) run on a Bio-Rad CFX384 Touch™ Real-Time PCR Detection System and analyzed with CFX Manager™[9]. NKA α1, 2, and 3 subunits were detected by published primers, amplified by iTaq using the same cycling temperature and times previously described for HIV-1 US/MS cDNAs except α1, 2, and 3 annealing temperatures were 61 °C[9],[73]. All data was normalized to β-actin as internal loading control. Primers sequences for NKA α subunits were as follows: α1 forward (5′-[…] -3′), α1 reverse (5′- […] -3′), α2 forward (5′-[…]-3′), α2 reverse (5′-[…]-3′), α3 forward (5′-[…]-3′), and α3 reverse (5′-GGGCAGACTCAGACGCATC-3′). Monitoring the subcellular localization of HIV-1 genomic RNA. HeLa rtTA-HIV(Gag-GFP) cells were seeded on cover slips, treated with drug/compound, and processed for FISH to detect HIV-1 US RNAs using Stellaris™ probes (Biosearch Technologies) as previously detailed[10],[11].

[3] = system: HIV-1 Rev; assay: Immunoblot of HIV-1 Rev (p19) in HeLa rtTA-HIV-ΔMls cells
Protocol: as §1

[4] = p24CA ELISA, day 14, inferred near maximal IC50s

SMILES: C[C@]12CC[C@H](O)C[C@H]1CC[C@@H]1[C@@H]2CC[C@]2(C)[C@@H](C3=CC(=O)OC3)CC[C@]12O [Digitoxigenin]
- IC90 ([1]; Day14, p24CA ELISA): 2 nM
- IC50 [1, 4]: ~1.1 nM
- HIV-1 US RNA subcellular localization [2]: Some residual cytoplasmic staining

SMILES: C[C@H]1O[C@@H](O[C@H]2[C@@H](O)C[C@H](O[C@H]3[C@@H](O)C[C@H](O[C@H]4CC[C@@]5(C)[C@H](CC[C@@H]6[C@@H]5CC[C@]5(C)[C@@H](C7=CC(=O)OC7)CC[C@]65O)C4)O[C@@H]3C)O[C@@H]2C)C[C@H](O)[C@@H]1O [Digitoxin]
- concentration to inhibit viral replication in HIV-infected PBMCs, fold lower than serum concentration in patients treated for heart conditions [1]: 15–26 fold
- IC90 ([1]; Day14, p24CA ELISA): 7.5 nM
- IC50 [1, 4]: ~1.3 nM
- Rev accumulation [3]: no effect on Rev accumulation
- HIV-1 US RNA subcellular localization [2]: Some residual cytoplasmic staining

SMILES: CC(=O)O[C@H]1C[C@H](O[C@H]2[C@@H](O)C[C@H](O[C@H]3[C@@H](O)C[C@H](O[C@H]4CC[C@@]5(C)[C@H](CC[C@@H]6[C@@H]5C[C@@H](O)[C@]5(C)[C@@H](C7=CC(=O)OC7)CC[C@]65O)C4)O[C@@H]3C)O[C@@H]2C)O[C@H](C)[C@H]1O[C@@H]1O[C@H](CO)[C@@H](O)[C@H](O)[C@H]1O [Lanatoside C]
- Rev accumulation [3]: reduce Rev accumulation

SMILES: C[C@H]1O[C@@H](O[C@H]2[C@@H](O)C[C@H](O[C@H]3[C@@H](O)C[C@H](O[C@H]4CC[C@@]5(C)[C@H](CC[C@@H]6[C@@H]5C[C@@H](O)[C@]5(C)[C@@H](C7=CC(=O)OC7)CC[C@]65O)C4)O[C@@H]3C)O[C@@H]2C)C[C@H](O)[C@@H]1O [Digoxin]
- IC50 [1]: ~1.1 nM
- IC90 [1]: 2 nM
- Rev accumulation [3]: reduce Rev accumulation
- HIV-1 US RNA subcellular localization [2]: almost exclusively within the nucleus

SMILES: C[C@]12CC[C@H](O)C[C@H]1CC[C@@H]1[C@@H]2C[C@@H](O)[C@]2(C)[C@@H](C3=CC(=O)OC3)CC[C@]12O [Digoxigenin]
- HIV-1 US RNA subcellular localization [2]: almost exclusively within the nucleus

SMILES: C[C@@H]1O[C@@H](O[C@H]2C[C@@H](O)[C@]3(CO)[C@H]4[C@H](O)C[C@]5(C)[C@@H](C6=CC(=O)OC6)CC[C@]5(O)[C@@H]4CC[C@]3(O)C2)[C@H](O)[C@H](O)[C@H]1O [Ouabain]
- Rev accumulation [3]: no effect on Rev accumulation
- HIV-1 US RNA subcellular localization [2]: Some residual cytoplasmic staining
